Laboratory results reported in patent US20090099195A1 (ASTRAZENECA AB, priority 2007, published 2009).

Target: T1, hP2X3 (human Purinergic P2X receptors subtype 3), clone B (Homo sapiens, UniProt P56373)
T1 sequence (P56373 1-397): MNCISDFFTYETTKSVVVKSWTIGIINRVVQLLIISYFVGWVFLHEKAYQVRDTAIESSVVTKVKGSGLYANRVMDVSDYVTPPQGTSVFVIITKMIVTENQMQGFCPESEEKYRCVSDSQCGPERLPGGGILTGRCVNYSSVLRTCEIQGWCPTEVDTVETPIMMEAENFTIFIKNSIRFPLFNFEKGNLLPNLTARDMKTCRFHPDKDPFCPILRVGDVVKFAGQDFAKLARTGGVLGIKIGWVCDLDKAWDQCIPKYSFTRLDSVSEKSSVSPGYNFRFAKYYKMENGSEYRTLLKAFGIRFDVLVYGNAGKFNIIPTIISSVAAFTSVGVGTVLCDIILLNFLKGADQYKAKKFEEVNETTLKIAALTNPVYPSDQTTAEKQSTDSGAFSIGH
Assay: hP2X3 FLIPR calcium (Fluo-4) antagonist assay, clone B
Conditions: Human P2X3 FLIPR Clone B IC50 (nM), RLE cells expressing hP2X3 clone B (NM_002559); agonist 500 nM α,β-methylene-ATP
Method: The assay used a calcium indicator dye (Fluo-4) that emits fluorescence, the intensity of which is related to the concentration of calcium that entered the cell when P2X3 was activated and the channel opened. Activation of hP2X3 or rat P2X3 and rat P2X2/3 (from the coexpression of rat P2X3 and rat P2×2) is elicited the by P2X3 agonist α,β methylene-ATP (Sigma M6517), and the resulting fluorescence is measured with a FLIPR II™ instrument (Molecular Devices). Compounds are tested for their ability to inhibit the agonist-induced fluorescent signal.
For the rat P2X2/3 HEK-TREX cells, induction of the rat P2X3 expression is used to generate the rat P2X2/3 channels in HEK-TREX cells and performed by addition of 1 μg/mL tetracycline (Invitrogen) 24 h prior to compounds testing to the HEK-TREX expressing the rat P2X2 constitutively. On the day of the experiment, the cells and test compounds are prepared as follows. […] After preparing the compounds, the medium is removed from the cell plates by inversion. A loading solution of 30 μL assay buffer containing 4 μM of the calcium indicator dye FLUO-4 AM (Molecular Probes F14202) is added to each well using a Multidrop (Labsystems). […] The incubation is terminated by washing the cells four times in assay buffer using a Skatron Embla (Molecular Devices), and 25 μL of assay buffer was left in each well. Cell plates are then transferred to the FLIPR. Experiments are initiated by measuring a baseline fluorescence reading for 10 seconds, followed by the addition of 12.5 μL of cpds and data sampling for a total 280 seconds. The experiments are terminated by addition of 12.5 μL of a reference agonist (500 nM α,β-methylene-ATP) or buffer, producing a final assay volume of 50 μL followed by data sampling for an additional 280 seconds.
In P2X3 antagonist experiments (human and rat assays) data are analysed as normalised maximal peak fluorescence monitored following agonist addition and calculated as percent of relative fluorescent counts from control agonist. The dose-response antagonist inhibition curves are analyzed in a 4-parameter sigmoidal fit using a non-linear curve-fitting program (XLfit version 5.0.6, ID Business Solutions Limited, Guildford, UK).

Row | Compound | IC50 [nM]
1 | CC(=O)N1CCN(c2nc(NC(C)c3ccc(CC(C)C)cc3)c3c(n2)C(=O)N(C(C)C)C3)CC1 (stereo not shown) [Example 6, 2-(4-acetylpiperazin-1-yl)-4-{[1-(4-isobutylphenyl)ethyl]amino}-6-isopropyl-5,6-dihydro-7H-pyrrolo[3,4-d]pyrimidin-7-one] | 160
2 | CC(=O)NC1CCN(c2nc(NC(C)(C)Cc3ccc(Cl)cc3)c3c(n2)C(=O)N(C(C)C)C3)C1 (stereo not shown) [Example 62, N-[1-(4-{[2-(4-chlorophenyl)-1,1-dimethylethyl]amino}-6-isopropyl-7-oxo-6,7-dihydro-5H-pyrrolo[3,4-d]pyrimidin-2-yl)pyrrolidin-3-yl]acetamide] | 340
3 | CCCc1ccc(C(C)Nc2nc(N3CCN(C(C)=O)CC3)nc3c2CN(C(C)C)C3=O)cc1 (stereo not shown) [Example 29, 2-(4-acetylpiperazin-1-yl)-6-isopropyl-4-{[1-(4-propylphenyl)ethyl]amino}-5,6-dihydro-7H-pyrrolo[3,4-d]pyrimidin-7-one] | 160
4 | CCN1CCN(c2nc(NC(c3ccccc3)c3ccc(Cl)cc3)c3c(n2)C(=O)N(C(C)C)C3)CC1 (stereo not shown) [Example 18, 4-{[(4-chlorophenyl)(phenyl)methyl]amino}-2-(4-ethylpiperazin-1-yl)-6-isopropyl-5,6-dihydro-7H-pyrrolo[3,4-d]pyrimidin-7-one] | 180
5 | CC(=O)N1CCN(c2nc3c(c(N(C)Cc4ccc5ccccc5n4)n2)CN(C(C)C)C3=O)CC1 [Example 249, 2-(4-acetylpiperazin-1-yl)-6-isopropyl-4-(methyl(quinolin-2-ylmethyl)amino)-5H-pyrrolo[3,4-d]pyrimidin-7(6H)-one] | 6000
6 | CC(=O)N1CCN(c2nc3c(c(N(Cc4ccccc4)CC4CC4)n2)CN(C(C)C)C3=O)CC1 [Example 51, 2-(4-acetylpiperazin-1-yl)-4-[benzyl(cyclopropylmethyl)amino]-6-isopropyl-5,6-dihydro-7H-pyrrolo[3,4-d]pyrimidin-7-one] | 2700
7 | CC(C)N1Cc2c(NCc3cnc4ccccc4c3)nc(N3CCN(S(C)(=O)=O)CC3)nc2C1=O [Example 329, 6-(1-methylethyl)-2-[4-(methylsulfonyl)piperazin-1-yl]-4-[(quinolin-3-ylmethyl)amino]-5,6-dihydro-7H-pyrrolo[3,4-d]pyrimidin-7-one] | 8900
8 | CC(=O)N1CCN(c2nc3c(c(N4CCCC4c4cccc(C)c4)n2)CN(C(C)C)C3=O)CC1 (stereo not shown) [Example 269, 4-(4-acetylpiperazin-1-yl)-2-[2-(3-methylphenyl)pyrrolidin-1-yl]-8-propan-2-yl-3,5,8-triazabicyclo[4.3.0]nona-2,4,10-trien-7-one] | 740
9 | CC(C)N1Cc2c(NC(C)(C)Cc3ccc(Cl)cc3)nc(N3CCNC(=O)CC3)nc2C1=O [Example 68, 4-{[2-(4-chlorophenyl)-1,1-dimethylethyl]amino}-6-isopropyl-2-(5-oxo-1,4-diazepan-1-yl)-5,6-dihydro-7H-pyrrolo[3,4-d]pyrimidin-7-one] | 350
10 | CC(=O)N1CCN(c2nc3c(c(N(Cc4ccccc4)CC4CCCO4)n2)CN(C(C)C)C3=O)CC1 (stereo not shown) [Example 3, 2-(4-acetylpiperazin-1-yl)-4-[benzyl(tetrahydrofuran-2-ylmethyl)amino]-6-isopropyl-5,6-dihydro-7H-pyrrolo[3,4-d]pyrimidin-7-one] | 4600
11 | CC(=O)N1CCN(c2nc(NCc3cc(C(C)(C)C)[nH]n3)c3c(n2)C(=O)N(C(C)C)C3)CC1 [Example 143, 4-(4-acetylpiperazin-1-yl)-8-propan-2-yl-2-[(5-tert-butyl-1H-pyrazol-3-yl)methylamino]-3,5,8-triazabicyclo[4.3.0]nona-1,3,5-trien-7-one] | 160
12 | Cc1ccc(C(Nc2nc(N3CCN(C(C)C)CC3)nc3c2CN(C(C)C)C3=O)c2ccccc2)cc1 (stereo not shown) [Example 102, 2-(4-isopropyl-piperazin-1-yl)-6-isopropyl-4-[(phenyl-p-tolyl-methyl)-amino]-5,6-dihydro-pyrrolo[3,4-d]-pyrimidin-7-one] | 200
13 | CC(=O)N1CCN(c2nc(NCc3ccc4c(c3)CCCN4C)c3c(n2)C(=O)N(C(C)C)C3)CC1 [Example 38, 2-(4-acetylpiperazin-1-yl)-6-isopropyl-4-{[(1-methyl-1,2,3,4-tetrahydroquinolin-6-yl)methyl]amino}-5,6-dihydro-7H-pyrrolo[3,4-d]pyrimidin-7-one] | 12000
14 | CC(C)N1Cc2c(NCc3cnc4ccccc4c3)nc(N3CCN4C(=O)CCC4C3)nc2C1=O (stereo not shown) [Example 135, 6-Isopropyl-2-(6-oxohexahydropyrrolo[1,2-a]pyrazin-2(1H)-yl)-4-(quinolin-3-ylmethylamino)-5H-pyrrolo[3,4-d]pyrimidin-7(6M)-one] | 870
15 | CC(=O)N1CCN(c2nc(N[C@@H](C)c3ccc(OC(CF)CF)cc3)c3c(n2)C(=O)N(C(C)C)C3)CC1 [Example 251, (S)-2-(4-acetylpiperazin-1-yl)-4-(1-(4-(1,3-difluoropropan-2-yloxy)phenyl)ethylamino)-6-isopropyl-5H-pyrrolo[3,4-d]pyrimidin-7(6H)-one] | 5200
16 | CC(=O)N1CCN(c2nc3c(c(N4CCCC4c4ccc5ncccc5c4)n2)CN(C(C)C)C3=O)CC1 (single isomer, unassigned) [Example 285, 4-(4-acetylpiperazin-1-yl)-8-propan-2-yl-2-(2-quinolin-6-ylpyrrolidin-1-yl)-3,5,8-triazabicyclo[4.3.0]nona-1,3,5-trien-7-one] | 100
17 | CC(=O)N1CCN(c2nc(NC(C)C3COc4ccccc4O3)c3c(n2)C(=O)N(C(C)C)C3)CC1 (single isomer, unassigned) [Example 179, 2-(4-acetylpiperazin-1-yl)-4-(1-(2,3-dihydrobenzo[b][1,4]dioxin-2-yl)ethylamino)-6-isopropyl-5H-pyrrolo[3,4-d]pyrimidin-7(6H)-one] | 190
18 | CC1CN(c2nc(NC(c3ccccc3)c3ccccc3)c3c(n2)C(=O)N(C(C)C)C3)CC(C)O1 (stereo not shown) [Example 86, 4-(Benzhydryl-amino)-2-(2,6-dimethyl-morpholin-4-yl)-6-isopropyl-5,6-dihydro-pyrrolo[3,4-d]pyrimidin-7-one] | 280
19 | CC(=O)N1CCN(c2nc(NC(C)(C)Cc3ccc(F)cc3)c3c(n2)C(=O)N(C2CCOCC2)C3)CC1 [Example 305, 3-(4-acetylpiperazin-1-yl)-5-[[1-(4-fluorophenyl)-2-methyl-propan-2-yl]amino]-8-(oxan-4-yl)-2,4,8-triazabicyclo[4.3.0]nona-1,3,5-trien-9-one] | 2400
20 | CC(=O)N1CCN(c2nc(NCCc3ccc(C)c(C)c3)c3c(n2)C(=O)N(C(C)C)C3)CC1 [Example 55, 2-(4-acetylpiperazin-1-yl)-4-{[2-(3,4-dimethylphenyl)ethyl]amino}-6-isopropyl-5,6-dihydro-7H-pyrrolo[3,4-d]pyrimidin-7-one] | 9700
21 | CC(=O)N1CCN(c2nc(NC(C(=O)O)c3ccc(C(F)(F)F)cc3)c3c(n2)C(=O)N(C(C)C)C3)CC1 (stereo not shown) [Example 35, {[2-(4-acetylpiperazin-1-yl)-6-isopropyl-7-oxo-6,7-dihydro-5H-pyrrolo[3,4-d]pyrimidin-4-yl]amino}[4-(trifluoromethyl)phenyl]acetic acid] | 1200
22 | CC(C)N1Cc2c(NCc3cnc4ccccc4c3)nc(NCC3CCOCC3)nc2C1=O [Example 219, 6-(1-methylethyl)-4-[(quinolin-3-ylmethyl)amino]-2-[(tetrahydro-2H-pyran-4-ylmethyl)amino]-5,6-dihydro-7H-pyrrolo[3,4-d]pyrimidin-7-one] | 8400
23 | CC(=O)N1CCN(c2nc(NCc3cnc4ccccc4c3)c3c(n2)C(=O)N(C(C)C)C3)C[C@H]1C [Example 328, (R)-2-(4-acetyl-3-methylpiperazin-1-yl)-6-isopropyl-4-(quinolin-3-ylmethylamino)-5H-pyrrolo[3,4-d]pyrimidin-7(6H)-one] | 62
24 | CC(C)N1Cc2c(NC(c3ccccc3)c3ccccc3)nc(N3CCN(C(=O)C4CC4)CC3)nc2C1=O [Example 79, 4-(Benzhydryl-amino)-2-(4-cyclopropanecarbonyl-piperazin-1-yl)-6-isopropyl-5,6-dihydro-pyrrolo[3,4-d]pyrimidin-7-one] | 130
25 | CCC(=O)N1CCN(c2nc(NC(C)(C)Cc3ccc(Cl)cc3)c3c(n2)C(=O)N(C(C)C)C3)CC1 [Example 71, 4-{[2-(4-chlorophenyl)-1,1-dimethylethyl]amino}-6-isopropyl-2-(4-propionylpiperazin-1-yl)-5,6-dihydro-7H-pyrrolo[3,4-d]pyrimidin-7-one] | 130
26 | CCOc1cccc([C@@H](C)Nc2nc(N3CCN(C(C)=O)CC3)nc3c2CN(C(C)C)C3=O)c1 [Example 156, (R)-2-(4-acetylpiperazin-1-yl)-4-(1-(3-ethoxyphenyl)ethylamino)-6-isopropyl-5H-pyrrolo[3,4-d]pyrimidin-7(6H)-one] | 830
27 | CC(C)N1Cc2c(NCc3cnc4ccccc4c3)nc(N3CCC(F)(F)C3)nc2C1=O [Example 216, 2-(3,3-difluoropyrrolidin-1-yl)-6-isopropyl-4-(3-quinolymethylamino)-5H-pyrrolo[3,4-d]pyrimidin-7-one] | 680
28 | CC(=O)N1CCN(c2nc3c(c(N4CCCC4Cc4ccc(Cl)cc4)n2)CN(C(C)C)C3=O)CC1 (stereo not shown) [Example 50, 2-(4-acetylpiperazin-1-yl)-4-[2-(4-chlorobenzyl)pyrrolidin-1-yl]-6-isopropyl-5,6-dihydro-7H-pyrrolo[3,4-d]pyrimidin-7-one] | 150
